Several values for one entry are separate records, joined by “and”; a condition that tells them apart may be missing. Identical values can stand only once.
How the values were obtained:
Conditions in all cases: at 1 µM
[1] = biological target: T1, Inhibitor of nuclear factor kappa-B kinase subunit beta (Homo sapiens) (UniProt O14920)
T1 sequence (whole entry): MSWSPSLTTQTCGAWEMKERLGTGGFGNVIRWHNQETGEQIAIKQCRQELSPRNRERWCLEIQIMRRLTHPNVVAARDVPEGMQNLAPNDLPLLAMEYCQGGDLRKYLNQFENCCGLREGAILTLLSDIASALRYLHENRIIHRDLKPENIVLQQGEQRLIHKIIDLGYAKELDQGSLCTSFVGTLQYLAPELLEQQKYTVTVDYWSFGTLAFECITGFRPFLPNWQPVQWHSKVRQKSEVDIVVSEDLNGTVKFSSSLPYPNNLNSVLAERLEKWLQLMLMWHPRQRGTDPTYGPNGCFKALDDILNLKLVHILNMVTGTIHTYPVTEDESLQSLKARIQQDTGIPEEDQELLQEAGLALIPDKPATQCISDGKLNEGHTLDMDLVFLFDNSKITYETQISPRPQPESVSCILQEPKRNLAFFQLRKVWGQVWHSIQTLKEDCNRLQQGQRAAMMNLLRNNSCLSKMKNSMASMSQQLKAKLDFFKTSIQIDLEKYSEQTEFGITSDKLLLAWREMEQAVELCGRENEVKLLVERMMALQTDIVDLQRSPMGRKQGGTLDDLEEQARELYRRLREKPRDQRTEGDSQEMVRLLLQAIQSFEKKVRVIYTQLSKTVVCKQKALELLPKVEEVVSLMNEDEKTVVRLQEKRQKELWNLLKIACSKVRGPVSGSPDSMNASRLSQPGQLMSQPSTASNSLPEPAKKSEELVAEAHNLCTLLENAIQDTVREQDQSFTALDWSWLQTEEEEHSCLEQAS

[2] = biological target: T2, Inhibitor of nuclear factor kappa-B kinase subunit epsilon (Homo sapiens) (UniProt Q14164)
T2 sequence (whole entry): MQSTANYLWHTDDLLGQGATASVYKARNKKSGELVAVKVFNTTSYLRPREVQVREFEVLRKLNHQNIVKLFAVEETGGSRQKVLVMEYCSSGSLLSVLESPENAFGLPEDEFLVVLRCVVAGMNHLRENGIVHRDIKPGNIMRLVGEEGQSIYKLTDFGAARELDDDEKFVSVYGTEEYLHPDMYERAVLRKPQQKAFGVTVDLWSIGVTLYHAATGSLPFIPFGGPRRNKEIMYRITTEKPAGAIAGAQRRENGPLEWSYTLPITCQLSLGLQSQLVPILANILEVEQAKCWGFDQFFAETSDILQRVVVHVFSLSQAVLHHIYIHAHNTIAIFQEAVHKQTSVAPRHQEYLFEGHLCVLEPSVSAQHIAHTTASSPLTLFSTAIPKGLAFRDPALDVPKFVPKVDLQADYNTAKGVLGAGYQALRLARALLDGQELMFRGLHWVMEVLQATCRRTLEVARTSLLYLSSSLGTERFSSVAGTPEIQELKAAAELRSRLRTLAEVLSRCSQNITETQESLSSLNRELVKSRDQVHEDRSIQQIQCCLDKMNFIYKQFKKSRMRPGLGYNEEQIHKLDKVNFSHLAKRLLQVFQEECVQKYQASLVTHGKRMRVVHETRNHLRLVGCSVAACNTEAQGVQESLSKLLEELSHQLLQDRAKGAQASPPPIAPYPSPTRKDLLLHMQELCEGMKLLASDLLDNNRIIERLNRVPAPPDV

[3] = biological target: T3, Inhibitor of nuclear factor kappa-B kinase subunit alpha (Homo sapiens) (UniProt O15111)
T3 sequence (whole entry): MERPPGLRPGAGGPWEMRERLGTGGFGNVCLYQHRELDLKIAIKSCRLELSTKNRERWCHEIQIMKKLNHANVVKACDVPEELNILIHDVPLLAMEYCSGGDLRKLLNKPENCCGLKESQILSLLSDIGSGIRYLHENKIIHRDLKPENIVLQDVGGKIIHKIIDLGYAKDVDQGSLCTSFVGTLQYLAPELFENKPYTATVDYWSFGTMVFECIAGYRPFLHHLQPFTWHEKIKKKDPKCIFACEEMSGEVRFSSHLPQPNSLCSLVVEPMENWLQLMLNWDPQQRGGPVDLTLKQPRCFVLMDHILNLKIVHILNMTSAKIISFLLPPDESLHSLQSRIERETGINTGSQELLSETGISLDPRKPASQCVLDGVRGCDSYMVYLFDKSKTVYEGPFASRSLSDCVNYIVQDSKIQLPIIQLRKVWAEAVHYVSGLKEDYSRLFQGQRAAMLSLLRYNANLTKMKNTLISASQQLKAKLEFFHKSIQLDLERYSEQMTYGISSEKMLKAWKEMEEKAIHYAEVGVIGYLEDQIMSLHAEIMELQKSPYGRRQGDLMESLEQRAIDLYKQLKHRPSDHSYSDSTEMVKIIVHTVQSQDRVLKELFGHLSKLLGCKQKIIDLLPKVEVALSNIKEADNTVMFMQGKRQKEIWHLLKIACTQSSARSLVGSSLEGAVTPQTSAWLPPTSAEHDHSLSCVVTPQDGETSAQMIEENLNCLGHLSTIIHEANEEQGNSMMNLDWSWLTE

Compound | inhibition [1] | inhibition [2] | inhibition [3]
NC(=O)c1sc(-n2cnc3cc(C(F)(F)F)ccc32)cc1OCc1ccccc1Br | -4% and -3% | 3% and 2% | 1% and 3%
Nc1ncnc2occ(-c3ccc(NC(=O)Nc4cc(C(F)(F)F)cc(C(F)(F)F)c4)cc3)c12 | -4% | 7% and 8% | 4% and 1%
NS(=O)(=O)c1ccc(N/N=C2\C(=O)Nc3ccc4ncccc4c32)cc1 | -9% and -6% | 55% | 4% and -7%
NS(=O)(=O)c1ccc(-c2ccc3c(NC(=O)C4CC4)n[nH]c3c2)cc1 | -7% and -3% | 1% and -2% | -1% and 2%
CC1=C(C(=O)Nc2ccc3[nH]ncc3c2)C(c2ccc3ccccc3c2)CC(=O)N1 (centres undefined) | -3% | 0% and -3% | 0% and 11%
Cn1cc(C=C2C(=O)Nc3cccnc32)c2ccccc21 | -5% and 0% | 7% and 10% | 15%
CS(=O)(=O)CCNCc1ccoc1-c1ccc2ncnc(Nc3ccc(OCc4ccccc4)cc3)c2c1 | 5% and 4% | 3% | -2%
CCn1c(-c2nonc2N)nc2c(C#CC(C)(C)O)ncc(OCC3CCNCC3)c21 | -3% | 96% | 9% and 3%
NS(=O)(=O)c1ccc(N/N=C2\C(=O)Nc3ccc(Cl)cc32)cc1 | -3% and -5% | 2% and 1% | 2%
COc1ccc(COc2ccc(Cc3cnc(N)nc3N)cc2OC)cc1 | -2% and -5% | -4% and -2% | 2%
NC(=O)c1ccc(Oc2nccc(-c3c(-c4ccc(F)cc4)ncn3C3CCNCC3)n2)cc1 | 0% | 3% | -5% and -4%
COc1cc2ncn(-c3cc(OCc4ccccc4S(C)(=O)=O)c(C#N)s3)c2cc1OC | -5% and -2% | 90% and 88% | 1% and 2%
Fc1ccc(Nc2nccc(-c3c(-c4ccc(C(F)(F)F)cc4)nn4ncccc34)n2)cc1F | 1% and -2% | -3% and -2% | 19% and 13%
Nc1nc(-c2ccc(F)cc2)c(-c2ccc3ncccc3n2)s1 | -3% and -1% | 0% and 1% | 0% and 1%
CCn1c(-c2nonc2N)nc2ccccc21 | -5% and -4% | -1% and -2% | 24%
COc1cc(N2CCN(C(C)C)CC2)ccc1Nc1nc(Nc2ccc(F)cc2C(=O)NC[C@@H](O)CO)c2cc[nH]c2n1 | -1% and -2% | 0% and 1% | 2% and 3%
c1ccc(Oc2ccc(Nc3ncc(-c4ccccc4)o3)cc2)cc1 | -5% and -2% | -2% and -1% | 1% and 2%
NCc1ccc(-c2nc(-c3ccc(Cl)c(O)c3)c(-c3ccncc3)[nH]2)cc1 | 2% | -1% and 0% | -3% and -4%
COc1cc2c(cc1Nc1nc(Nc3ccsc3C(N)=O)c3cc[nH]c3n1)N(C(=O)CN(C)C)CCC2 | -6% and -4% | 7% and 6% | 3% and 4%
Fc1ccc(-c2ncn(C3CCNCC3)c2-c2ccnc(Oc3ccc4c(c3)OCO4)n2)cc1 | -2% and -3% | -2% and 2% | -2% and 0%
CCn1c(-c2nonc2N)nc2c(C#CC(C)(C)O)ncc(OC[C@@H]3CCCN3)c21 | -2% and -1% | 97% | 18% and 19%
COc1cc2ncnc(Nc3ccc4c(cnn4Cc4ccccc4)c3)c2cc1OC | 5% and -4% | 2% | 2% and -2%

Compound | inhibition [1] | inhibition [2] | inhibition [3]
Cc1cc(Cl)cc2c1NC(=O)C2=NNc1ccc(S(N)(=O)=O)cc1 | -6% and -1% | 4% | 11%
CCN1CCC(CC(=O)Nc2n[nH]c3nnc(-c4cccc(F)c4F)cc23)CC1 | -2% and -1% | -1% and -3% | 1% and 6%
Cc1ccc(O)cc1Nc1ccnc2cc(-c3ccccn3)ccc12 | 0% and -5% | 1% | 6% and 4%
Cc1cccc(Nc2ncc(-c3ccccc3)o2)c1 | 2% and 1% | 0% and 1% | -1% and -2%
COc1cc(Nc2ncc(-c3ccccc3)o2)cc(OC)c1 | 0% and -4% | 0% and -1% | 1%
CCC(=O)Nc1ccc(C)c(-c2ccc(C(=O)NCC3CC3)cc2)c1 | -4% | -2% and 0% | -2%
CN1CCC(n2cnc(-c3ccc(F)cc3)c2-c2ccnc(N)n2)CC1 | -3% | 4% | 2%
Fc1ccc(-c2ncn(CCCN3CCOCC3)c2-c2ccncc2)cc1 | 0% and -5% | 0% | 0% and 1%
Nc1nccc(C#Cc2cncnc2Nc2ccc(OCc3cccc(F)c3)c(Cl)c2)n1 | -6% and -7% | 2% and 4% | 2% and 0%
Cc1ccc(C(=O)NC2CCCCC2)cc1-c1ccc(C(=O)NCC2CC2)cc1 | 5% and 0% | 0% and -1% | 9% and 7%
Cc1ccc(O)cc1Nc1ccnc2ccc(S(C)(=O)=O)cc12 | -6% and -8% | 0% and 2% | 5%
CN(c1ccc(NC(=O)Nc2c(Cl)cccc2Cl)cc1)c1ccnc(Nc2cccc(CS(C)(=O)=O)c2)n1 | -3% and -5% | 13% | 0% and 6%
COc1ccc2cc(-c3c(-c4ccncc4)nc(-c4ccc([S+](C)[O-])cc4)n3C)ccc2c1 (centres undefined) | 2% and 3% | -1% and 2% | 4% and 3%
Cc1ccc(-c2cc3c(NC(=O)C4CC4)ncnc3o2)cc1 | -2% and -4% | -4% and -3% | 0% and -1%
c1ccc(Cc2nc3ccc(Nc4ncnc5ccccc45)cc3[nH]2)cc1 | -5% and -6% | -3% and -2% | -3% and 1%
Cc1c2ccc(N(C)c3ccnc(Nc4cccc(S(N)(=O)=O)c4)n3)cc2nn1C | 0% and -1% | -1% and 2% | 2%
CC(=O)Nc1cccc(C#Cc2cncnc2Nc2ccc(OCc3cccc(F)c3)c(Cl)c2)n1 | -4% and -2% | -1% | 2%
CN(C)C(=O)O[C@@H]1CN[C@@H](C#Cc2cc3ncnc(Nc4ccc(OCc5cccc(F)c5)c(Cl)c4)c3s2)C1 | -4% and -7% | -1% | 2% and 1%
O=C(Nc1n[nH]c2cc(-c3ccc(F)cc3)ccc12)C1CC1 | -8% and -2% | 2% and -1% | 2% and 12%
CS(=O)(=O)CCN(CC#N)Cc1ccc(-c2ccc3ncnc(Nc4ccc(OCc5cccc(F)c5)c(Cl)c4)c3c2)o1 | -2% and -1% | 1% and 4% | 1%
c1cnn2ncc(-c3ccnc(Nc4ccc5c(c4)OCCO5)n3)c2c1 | -4% | 23% and 21% | 0% and -2%

Reference: ChEMBL document CHEMBL2007661, “Compounds: GSK PKIS; Assays: UNC Frye lab” (2012)
